# Experiments:
# bradykinin B2 receptor = molecular target: T1, bradykinin B2 receptor (Cavia porcellus, UniProt O70526); assay: binding to the bradykinin B2 receptor of the guinea-pig ileum (3H-bradykinin competition); conditions: 3H-bradykinin 0.25 to 0.3 nmol/l, guinea-pig ileum membranes; for Ki: LIGAND program; for IC50: room temperature, 60 minutes
# T1 construct: The guinea-pig ilea are roughly freed of the intestinal contents by careful stripping; from tissue; host or cells: guinea-pig ileum, membrane preparation
# T1 sequence (O70526 1-372): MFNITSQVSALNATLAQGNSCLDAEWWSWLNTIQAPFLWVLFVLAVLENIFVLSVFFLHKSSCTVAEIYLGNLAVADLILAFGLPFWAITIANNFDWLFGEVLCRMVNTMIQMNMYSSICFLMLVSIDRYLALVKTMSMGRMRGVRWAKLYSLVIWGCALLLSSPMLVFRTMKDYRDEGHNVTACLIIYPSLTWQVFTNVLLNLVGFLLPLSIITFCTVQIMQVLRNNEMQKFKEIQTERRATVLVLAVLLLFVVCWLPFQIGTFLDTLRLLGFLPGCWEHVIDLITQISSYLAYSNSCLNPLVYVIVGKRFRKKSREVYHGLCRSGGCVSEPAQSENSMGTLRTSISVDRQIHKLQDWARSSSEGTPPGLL
# Experimental: The measurement of the binding to the bradykinin B2 receptor of the guinea-pig ileum is described in the following (R. B. Innis et al., Proc. Natl. Acad. Sci. USA; 17 (1981) 2630): […]
# 25 mM TES (SIGMA, Order No: T-4152)
# 1 mM 1,10-phenanthroline (SIGMA; Order No: P-9375)
# 25 mM TES (SIGMA; Order No.: T-4152)
# 1 mM 1,10-phenanthroline (SIGMA; Order No.: P-9375)
# 0,1% albumin, bovine (SIGMA; Order No.: A-7906)
# 140 mg/ml bacitracin (SIGMA; Order No.: B-0125)
# 1 mM dithiothreitol (SIGMA; Order No.: D-0632)
# 1 mM captopril® 1-[(2S)-3-mercapto-2-methylpropionyl]-L-proline
# Both buffers are adjusted to pH 6.8 using 5 molar NaOH.
# The guinea-pig ilea are roughly freed of the intestinal contents by careful stripping and cleaned in 0.9% strength NaCl solution. The pieces of ilea, which are about 2 cm long, are transferred to ice-cold TES buffer (about 1 g/10 ml) and homogenized in an ice-bath for 30 sec. using an Ultraturrax. The homogenate is then filtered through 3 layers of gauze and the filtrate is centrifuged at 50,000 g for 10 minutes. The supernatant is discarded, and the pellet is rehomogenized in the same volume of TES buffer and centrifuged again at 50,000 g for 10 minutes. The pellet is rehomogenized in incubation buffer (about 1 g/5 ml) and frozen at -70° C. in cryotubes, divided into 2 ml portions.
# The protein concentration of the ready-to-use membrane suspension is determined according to LOWRY and should be about 15 mg/100 ml.
# All incubations are carried out at room temperature for 60 minutes on microtiter plates (96×300 ml) in 200 ml volumes. All mixtures in incubation buffer. To this end, 50 ml of the radioligand, 50 ml of the preparation to be tested and 100 ml of the membrane suspension are pipetted successively into the depressions of the microtiter plate. […]
# a) Saturation Experiments (hot saturation)
# Preparation of the ^3 H-bradykinin solution: For the saturation experiments, the concentrations 0.05, 0.1, 0.2, 0.4, 0.6, 0.8, 1.0, 1.5, 2.0, 2.5 and 3.0 nmol/l are employed, which correspond to 0.05 to 3.0 pmol/ml. After the preparation of the corresponding dilutions, 50 ml each per sample are initially introduced.
# Nonspecific binding: For each concentration of the radioactive ligand, the nonspecific binding must be determined. This can be achieved by addition of a high concentration (1-100 mmol) of the unlabeled ligand, other antagonists or agonists of the bradykinin receptor. […] For this, 1.862 mg are dissolved in 1 ml of dimethyl sulfoxide (DMSO), diluted 1:25 with incubation buffer and 50 ml of this solution are added to the samples in the microtiter plates. The reaction is started by the addition of […] of the membrane suspension. […]
# b) Competition Experiments (IC50)
# Here a fixed quantity of the radioactive ligand (0.25 to 0.3 nmol/l of ^3 H-bradykinin) and various concentrations of the unlabeled agonists or antagonists are employed. 50 ml of the preparations or standards to be tested in the concentrations 10^-5 to 10^-10 mol/l are added to in each case 50 ml of the ^3 H-bradykinin solution and the reaction is started by addition of […] of membrane suspension. In this test too, triplicate determinations are carried out and three samples are incubated with […] of HOE 140 to determine the nonspecific binding.
# The preparations to be tested for competition are always dissolved at a concentration of 1 mmol/l in dimethyl sulfoxide (DMSO), and then further diluted with DMSO. This solution is then diluted 1:25 with incubation buffer.
# After incubation, the samples are filtered off in a Skatron cell harvester through a Whatmann GF/B filter previously moistened with 0.1% PEI (polyethylenimine) and washed with 10 ml of ice-cold TES buffer per sample. The still moist filters are punched out into mini-scintillation tubes and the tubes are filled with 3 ml of scintillator. After about 12 hours soaking time, the samples are briefly shaken and measured in a beta counter. […]
# [1] = system: bradykinin-induced contraction of the guinea-pig ileum; assay: antagonist action on the bradykinin-induced contraction of the guinea-pig ileum; type: cell-based; conditions: Cavia porcellus, 10 min; isolated guinea-pig ileum, bradykinin 4×10^-8 mol/l, time of action 10 min, 37° C.
# Experimental: The determinations of the antagonist action on the bradykinin-induced contraction of the guinea-pig ileum were carried out according to the following protocol:
# Guinea-pigs weighing about 300 g (Morioth strain,--) are killed by a blow to the neck and exsanguinated. The ileum is dissected out in a length of about 20 cm, rinsed with Tyrode solution (Record syringe) and thus freed of intestinal contents. It is then divided into sections 1.5 cm long. These are fixed in organ baths of capacity 10 ml, which are filled with Tyrode solution, and connected to extension-measuring strips (isometric contraction measurement). The preload is 1 g. The Tyrode solution is warmed to 37° C. in a water bath and bubbled through with compressed air. After an interval of 30 min. the experiment is begun. After recording the biological zero line, bradykinin at a final concentration of 4×10^-8 mol/l per organ bath is added and the […] is recorded. The organ bath is then rinsed for 3 min with Tyrode solution and, after a break of 20 min., bradykinin is added again. The maximum of the contraction is achieved (control). Rinse again, break. The bradykinin antagonist is then added (time of action 10 min). Bradykinin is then added again and the ensuing contraction is compared with that of the control. The experiment is recorded on a pen recorder. […]
# ______________________________________ […]
# [2] = system: bradykinin contraction of the isolated rabbit jugular vein; assay: in-vitro duration of action on the isolated rabbit jugular (bradykinin-induced contraction); type: cell-based, rabbit (white New Zealand); conditions: for inhibition at 10 µM: Oryctolagus cuniculus, 0.25 h, time 15 min, test substance (10^-5 M) present in bath, bradykinin 10^-7 M; for inhibition at 10 µM / Inhibition of the bradykinin contraction in %: mean, n=6; for Inhibition of the bradykinin contraction in %: after rinsing (test substance 10^-5 M no longer in bath); for inhibition after 4 h (in words): test substance 10^-5 M
# Experimental: The compounds of Examples 1, X and Y were compared. Examples X and Y are described in EP-A 622 361.
# Comparison of the in-vitro duration of action of heterocyclic bradykinin antagonists on the isolated rabbit jugular
# Male rabbits (white New Zealand, breeder: Mollegaard, Denmark, 2.5-3.0 kg) are killed by injection of an overdose of Pentobarbital-Na (1 ml of Narcoren®+0.5 ml of heparin). The two jugular veins are exposed, cut spirally and pieces of about 1.5 cm length are suspended in buffered organ baths (Krebs-Henseleit buffer) at a pretension of 0.5 g.
# After a rest period of 30 min, contractions are induced by addition of bradykinin (10^-7 M), which serve as the starting value. Test substances are then added at a concentration of 10^-5 M. The inhibitory values shown are mean values (n=6). […] The bradykinin contraction is then ended by rinsing with just buffer solution.
# At each further time shown, stimulation was again carried out with bradykinin (in the absence of the test substance in the bath fluid) and at the end of the contraction the bath fluid was replaced by just buffer solution.
SMILES,Ki (bradykinin B2 receptor),IC50 (bradykinin B2 receptor),inhibition at 10 µM [2],Inhibition of the bradykinin contraction in % ([2]; time 210 min),Inhibition of the bradykinin contraction in % ([2]; time 240 min),other results
"Cc1ccc2cccc(OCc3c(Cl)ccc(N(C)C(=O)CNC(=O)/C=C/c4ccc(C(F)(F)F)cc4)c3Cl)c2n1 [Example 1, 8-[3-(N-(4-trans-Trifluoromethylcinnamoylglycyl)-N-methylamino)-2,6-dichlorobenzyloxy]-2-methylquinoline]",1 nM,9 nM,98%,95%,92%,"IC50 [1]: 44 nM; in-vitro duration of action (in words) ([2]; isolated rabbit jugular, compared with Examples Y and X): distinctly longer in-vitro duration of action; Inhibition of the bradykinin contraction in % ([2]; time 30 min, bradykinin): 99%; Inhibition of the bradykinin contraction in % ([2]; time 60 min): 99%; Inhibition of the bradykinin contraction in % ([2]; time 270 min): 87%; Inhibition of the bradykinin contraction in % ([2]; time 300 min): 78%; Inhibition of the bradykinin contraction in % ([2]; time 330 min): 71%; Inhibition of the bradykinin contraction in % ([2]; time 360 min (6 h)): 68%"
Cc1ccc2c(C)ccc(OCc3c(Cl)ccc(N(C)C(=O)CNC(=O)/C=C/c4ccc(C(F)(F)F)cc4)c3Cl)c2n1 [Example 2],4 nM,40 nM,–,–,–,IC50 [1]: 1500 nM
Cc1ccc2cccc(OCc3c(Cl)ccc(N(C)C(=O)CNC(=O)Cc4ccc(C(F)(F)F)cc4)c3Cl)c2n1 [Example 8],3.4 nM,28 nM,–,–,–,–
Cc1ccc2cccc(OCc3c(Cl)ccc(N(C)C(=O)CNC(=O)OCc4ccc(OC(F)(F)F)cc4)c3Cl)c2n1 [Example 22],10 nM,95 nM,–,–,–,–
"Cc1ccc2cccc(OCc3c(Cl)ccc(N(C)C(=O)CNC(=S)Nc4cccc(C(F)(F)F)c4)c3Cl)c2n1 [Example 29, 8-[3-N-(3-Trifluoromethylphenylthioureidoacetyl-N-methylamino)-2,6-dichlorobenzyloxy]-2-methylquinoline]",5.1 nM,38 nM,–,–,–,–
Cc1ccc(/C=C/C(=O)NCC(=O)N(C)c2ccc(Cl)c(COc3cccc4ccc(C)nc34)c2Cl)cc1 [Example X],–,–,97%,58%,30%,inhibition after 4 h (in words) [2]: no longer show any inhibition; Inhibition of the bradykinin contraction in % ([2]; time 120 min): 95%; Inhibition of the bradykinin contraction in % ([2]; time 150 min): 87%; Inhibition of the bradykinin contraction in % ([2]; time 180 min): 74%
COc1cccc(/C=C/C(=O)NCC(=O)N(C)c2ccc(Cl)c(COc3cccc4ccc(C)nc34)c2Cl)c1 [Example Y],–,–,96%,59%,31%,"inhibition after 4 h (in words) [2]: no longer show any inhibition; Inhibition of the bradykinin contraction in % ([2]; time 30 min, bradykinin): 97%; Inhibition of the bradykinin contraction in % ([2]; time 180 min): 84%; Inhibition of the bradykinin contraction in % ([2]; time 270 min): 3%"
